Counter-ions that a name gives are not always drawn.
Test: RP, Waters ACQUITY UPLC BEH C18, 38 °C, 0.24 mL/min; A: water + 0.1% formic acid, pH 3; B: acetonitrile + 0.1% formic acid, pH 3; gradient (min/%B) 0/0 0.25/0 0.4/9 0.8/17 1.9/100 2.1/100 2.11/0 3/0
Settings: stereoisomer not certain

Structure (SMILES) | LC retention time [min]
CN1CC(=O)NC1=N [Creatinine,anhydrous] | 0.19
O=C1OC2C(O)C(O)OC2C1O [D-Glucurono-6,3-lactone] | 0.19
Nc1ccccc1C(=O)CC(N)C(=O)O [L-Kynurenine] | 1.1
NCC(O)c1ccc(O)c(O)c1 (single isomer, unassigned; (-)) [(-)-Norepinephrine] | 0.19
O=c1[nH]c(=O)c2cn[nH]c2[nH]1 [Oxypurinol] | 0.7
N[C@@H](Cc1ccc(O)c(Cl)c1)C(=O)O [3-Chloro-L-tyrosine hydrochloride] | 1.1
COc1cc(-c2[o+]c3cc(O)cc(O)c3cc2O)cc(OC)c1O [Malvidin Chloride] | 2.15
Nc1ccnc(=O)[nH]1 [Cytosine] | 0.19
C=C(CC(=O)O)C(=O)O [Itaconic acid] | 1.09
OCC1OC(OCC2OC(O)(CO)C(O)C2O)C(O)C(O)C1O (stereo unspecified) [Palatinose Monohydrate] | 0.19
O=C(O)C(=O)Cc1ccccc1 [Sodium phenylpyruvate] | 1.36
CCCCc1ccc(C(=O)O)nc1 [Fusaric acid] | 1.37
O=C(O)CCCCCCC(=O)O [Suberic acid] | 1.4
N=c1nc(N2CCCCC2)cc(N)n1O [Minoxidil] | 1.32
O=C1O[C@H]([C@@H](O)CO)C(O)=C1O [L-Ascorbic acid] | 1.15
CC(O)(CC(=O)O)CC(=O)O [3-Hydroxy-3-methylglutarate] | 0.68
O=c1cc[nH]cc1 [4-Hydroxypyridine] | 0.25
N[C@@H](CCSSCC[C@H](N)C(=O)O)C(=O)O (racemic) [DL-homocystine] | 0.23
NC(CCCC(N)C(=O)O)C(=O)O (racemic) [DL-alpha,epsilon-Diaminopimelic acid] | 0.15
CCCCCCN [Hexylamine] | 1.21
NCCCC(=O)O [gamma-Amino-n-butyric acid] | 0.17
O=C(O)CC(C(=O)O)C(O)C(=O)O (racemic) [DL-Isocitric acid trisodium salt] | 0.24
O=C(O)Cc1c[nH]c2ccc(O)cc12 [5-Hydroxyindole-3-acetate (5-HIAA)] | 1.27

Structure (SMILES) | LC retention time [min]
Cc1ncc(C[n+]2csc(CCO)c2C)c(N)n1 [Thiamine hydrochloride] | 0.19
OCC1OC(Oc2cc3c(O)cc(O)cc3[o+]c2-c2ccc(O)cc2)C(O)C(O)C1O (stereo unspecified) [Callistephin Chloride] | 1.25
NCCC(=O)NC(Cc1cnc[nH]1)C(=O)O [L-Carnosine] | 0.16
Cc1cnc(=O)[nH]c1N [5-Methylcytosine hydrochloride] | 0.25
O=C(O)CC(O)C(=O)O [L-(-)-Malic acid] | 0.23
CC1OC(O)C(O)C(O)C1O (stereo unspecified) | 0.21
OCC1OC(OC2C(CO)OC(O)C(O)C2O)C(O)C(O)C1O [D-(+)- Maltose monohydrate] | 0.17
NCC(=O)NCC(=O)O [Gly-Gly] | 0.16
C[N+](C)(C)CC=O [Betaine aldehyde chloride] | 0.16
CS(=O)CCCCN=C=S (racemic) [D,L-sulforaphane] | 1.44
CCCCCCCCCC(=O)OCC(O)COP(=O)([O-])OCC[N+](C)(C)C (stereo unspecified) [Phosphocholine,1-Decanoyl-2-Hydroxy-sn-Glycero-3-] | 1.65
C[n+]1cccc(C(N)=O)c1 [1-Methylnicotinamide chloride] | 0.18
O=c1c(-c2ccc(O)cc2)coc2cc(O)ccc12 [Daidzein] | 1.57
CC(N)CC(=O)O (racemic) [DL-beta-Aminobutyric acid] | 0.18
Nc1ccccc1 [Aniline] | 0.42
CS(=O)(=O)O [Methanesulfonic acid solution] | 0.17
CN(C)c1ccccc1 [N,N-Dimethylaniline] | 1.11
O=C(C=Cc1ccc(O)cc1)OCC1OC(Oc2c(-c3ccc(O)cc3)oc3cc(O)cc(O)c3c2=O)C(O)C(O)C1O (stereo unspecified) [Tiliroside] | 1.57
CC(=O)N[C@@H]1C(O)O[C@H](CO)[C@@H](O)[C@@H]1O (stereo partly drawn) [N-acetyl-D-mannosamine] | 0.18
NCCCC(=O)NC(Cc1cnc[nH]1)C(=O)O [L-Homocarnosine] | 0.16
CCCCCC1CCC(=O)O1 (stereo unspecified) [4-Nonanolide] | 1.87
NCC(=O)CCC(=O)O [delta-Aminolevulinic acid hydrochloride] | 0.18
CC(=O)NC1C(O)CC(O)(C(=O)O)OC1C(O)C(O)CO (stereo unspecified) [N-acetylneuraminic acid,Type IV-S,Synthetic] | 0.18

Structure (SMILES) | LC retention time [min]
Nc1c(O)cccc1C(=O)O [3-Hydroxyanthranilic acid] | 1.13
CCC(C(=O)O)C(=O)O [Ethylmalonic acid] | 1.12
OCC1OC(OC2C(O)C(O)C(O)C(O)C2O)C(O)C(O)C1O (stereo unspecified) [Galactinol Dihydrate] | 0.16
CC(=O)Oc1ccc2c(C)cc(=O)oc2c1 [4-methylumbelliferyl acetate] | 1.69
OCCNCCO [Diethanolamine] | 0.16
Nc1ccc(O)cc1 [4-Aminophenol hydrochloride] | 0.2
COc1cccc(C=CC(=O)O)c1 [3-Methoxycinnamic acid] | 1.67
O=C(O)c1cc(O)ccc1O [2,5-dihydroxy benzoic acid] | 1.25
O=C1CC(c2ccc(O)c(O)c2)Oc2cc(OC3OC(CO)C(O)C(O)C3O)cc(O)c21 (stereo unspecified) [eriodictyol-7-O-glucoside] | 1.41
Nc1nc2c(ncn2C2OC(COP(=O)(O)OP(=O)(O)OC3OC(CO)C(O)C(O)C3O)C(O)C2O)c(=O)[nH]1 [Guanosine-5'-diphosphate-D-mannose sodium salt] | 0.27
CC(=O)C(=O)O [Sodium Pyruvate] | 0.22
Cc1ncsc1CCO [4-Methyl-5-thiazoleethanol] | 1.08
C[N+](C)(C)CCOP(=O)(O)OP(=O)([O-])OCC1OC(n2ccc(N)nc2=O)C(O)C1O (stereo unspecified) | 0.2
C[C@H](N)C(=O)O [L-Alanine] | 0.17
c1cnc2c(c1)ccc1cccnc12 [1,10-Phenanthroline monohydrate] | 1.18
COc1ccccc1C(=O)O [o-Anisic Acid] | 1.47
N[C@@H](CCO)C(=O)O [L-Homoserine] | 0.17
O=c1c(O[C@@H]2O[C@H](CO)[C@@H](O)[C@H](O)[C@H]2O)c(-c2ccc(O[C@@H]3O[C@H](CO)[C@@H](O)[C@H](O)[C@H]3O)c(O)c2)oc2cc(O)cc(O)c12 [Quercetin-3,4'-O-di-beta-glucopyranoside] | 1.32
O=C(O)C1(O)CC(O)C(O)C(O)C1 [D-(-)-Quinic acid] | 0.19
O=C(O)C(O)C(O)C(O)C(O)C(=O)O (stereo unspecified) [mucic acid] | 2.13
COc1cc(-c2[o+]c3cc(O)cc(OC4OC(CO)C(O)C(O)C4O)c3cc2OC2OC(CO)C(O)C(O)C2O)cc(OC)c1O (stereo unspecified) [Malvin chloride] | 1.15
OCC1OC(OC2C(O)C(O)COC2(O)CO)C(O)C(O)C1O (stereo unspecified) | 0.18
Nc1ncnc2nc[nH]c12 [Adenine] | 0.32

Structure (SMILES) | LC retention time [min]
NCCCCN [1,4-Diaminobutane] | 0.14
O=C(O)c1ccc(O)cc1 [4-Hydroxybenzoate] | 1.25
NC(=O)NC(CC(=O)O)C(=O)O (racemic) [Carbamoyl-DL-aspartic Acid] | 0.12
O=C(O)CNC(=O)c1ccccc1 [Hippuric Acid] | 1.29
Nc1ccccc1C(=O)O [Anthranilic acid] | 1.39
NC(=O)NCCC[C@H](N)C(=O)O [L-Citrulline] | 0.18
C[N+](C)(C)CCOP(=O)(O)O [O-Phosphocholine] | 0.17
C[N+](C)(C)[O-] [Trimethylamine N-oxide dihydrate] | 0.18
CC(C)(CO)C(O)C(=O)NCCC(=O)O (stereo not drawn) [Calcium (+)-pantothenate] | 1.11
OCC1OC(Oc2cc(O)cc(C=Cc3ccc(O)c(O)c3)c2)C(O)C(O)C1O (stereo unspecified) [E-3,4,5'-trihydroxy-3'-glucopyranosylstilbene] | 1.33
C[C@@H](N)P(=O)(O)O [(S)-(+)-1-Aminoethylphosphonic acid] | 0.16
O=CC(O)CO (racemic) [DL-Glyceraldehyde] | 0.17
NCCOP(=O)(O)O [O-Phosphorylethanolamine] | 0.16
CC(O)CN (stereo not drawn) [R-(-)-1-Amino-2-propanol] | 0.17
NCCCCC(=O)O [5-Aminovaleric acid] | 0.23
COc1cc(CC(=O)O)ccc1O [Homovanillic acid] | 1.33
Cc1cn(C2CC(O)C(CO)O2)c(=O)[nH]c1=O (stereo unspecified) [Thymidine] | 1.11
CC1OC(OC2C(Oc3cc(O)c4c(=O)c(O)c(-c5ccc(O)cc5)oc4c3)OC(CO)C(O)C2O)C(O)C(O)C1O (stereo unspecified) [kaempferol-7-O-neohesperidoside] | 1.44
CN=C(N)N [Methylguanidine hydrochloride] | 0.18
Nc1nc2c(ncn2C2OC(CO)C(O)C2O)c(=O)[nH]1 (stereo unspecified) [Guanosine] | 1.08
CCCCCCCCCCCCCCCC(O)C(N)CO [D-erythro-Dihydrosphingosine] | 1.98
O=c1ccn(C2OC(CO)C(O)C2O)c(=O)[nH]1 (stereo unspecified) [Uridine] | 0.66

— the RepoRT retention time repository (doi:10.1093/pcp/pcn183)
